How the values were obtained:
hα7-wt nAChR = hα7-wt nAChR (Homo sapiens, UniProt P36544); assay: Ca2+ flux imaging (FDSS): potentiation of the choline response; assay type: cell-based; conditions: Ca2+ assay as described in D.1, potentiation of choline response, hα7-wt nAChR; for EC50: read-out: Potency (pEC50) (converted); for Emax: read-out: % Efficacy
Procedure: • a) Assay Buffer • Hanks buffered saline solution (HBSS, Invitrogen, Belgium), supplemented with 10 mM HEPES (Invitrogen, Belgium), CaCl2 to a final concentration of 5 mM, 0.1% Bovine serum albumin (Sigma-Aldrich NV, Belgium). • b) Calcium-Sensitive Dye—Fluo-4AM • Fluo-4AM (Molecular Probes, USA) was dissolved in DMSO containing 10% Pluronic acid (Molecular Probes, USA) to give a stock solution which was diluted in assay buffer supplemented with 5 mM probenicid (Sigma, Aldrich NV, Belgium) to give a final concentration of 2 μM. • c) 384-Well Plates • Black 384 well plate black/clear plates, PDL pre-coated (Corning, Incorporated, USA) • d) Calcium Flux Measurement • A Functional drug screening system (FDSS, Hamamatsu) was used to measure intracellular free-calcium flux signals. Method
Monolayers of hα7-wt nAChR-expressing cells were grown in multi-well plates, in particular black-sided, transparent bottomed 384 well plates coated with poly-D-lysine for 24 hours prior to loading with a fluorescent calcium indicator, in a particular embodiment loading with fluo-4AM for up to 120 minutes.
PAM activity was detected in real time by applying the compounds to be tested to the loaded cells along with a α7 nicotinic receptor agonist during constant monitoring of cellular fluorescence in a FDSS. Compounds giving peak fluorescent responses greater than the response due to agonist alone, were considered to be α7 nAChR PAM's. In a particular embodiment, the α7 nicotinic receptor agonist was choline, a more particular embodiment choline applied at a sub-maximal concentration of 100 μM. In a further setting of the present invention the compounds to be tested were applied prior to the α7 nicotinic receptor agonist, in a particular embodiment up to 10 minutes prior to the agonist.
A control response to choline was calculated on each plate from the difference in peak in fluorescence in wells receiving either choline or assay buffer alone. Compounds of the present invention were tested at a concentration range from 0.01 μM to 30 μM. Compounds were considered to have an interesting activity when they potentiated the choline signal at least with 200% when tested at a concentration of 30 μM (the efficacy of 100 μM choline was defined as 100% in the absence of a PAM). An EC50 (or pEC50) was determined as a concentration relating to half the maximal effect, when a clear sigmoidal curve with top plateau was obtained.

hα7-wt nAChR, sequence (P36544 23-502): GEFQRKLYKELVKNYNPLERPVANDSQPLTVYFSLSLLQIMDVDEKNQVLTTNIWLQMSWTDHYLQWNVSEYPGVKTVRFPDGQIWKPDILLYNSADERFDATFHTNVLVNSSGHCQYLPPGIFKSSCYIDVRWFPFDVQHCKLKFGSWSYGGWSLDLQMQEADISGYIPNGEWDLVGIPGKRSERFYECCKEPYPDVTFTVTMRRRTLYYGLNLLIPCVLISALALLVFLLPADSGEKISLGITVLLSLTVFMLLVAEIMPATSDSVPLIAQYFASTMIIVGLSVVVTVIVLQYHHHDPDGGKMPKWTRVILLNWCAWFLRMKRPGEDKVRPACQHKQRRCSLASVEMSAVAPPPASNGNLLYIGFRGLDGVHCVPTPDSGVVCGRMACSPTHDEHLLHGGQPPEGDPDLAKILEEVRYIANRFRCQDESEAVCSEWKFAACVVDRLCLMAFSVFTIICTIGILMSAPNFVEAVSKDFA

SMILES | EC50 (hα7-wt nAChR) [µM] | melting point [°C] | Emax (hα7-wt nAChR) [%]
COc1cc(Nc2cc(CCCO)n(-c3ccnc(C)c3)n2)cc(C(F)(F)F)c1 [Compound 7, 3-[[3-methoxy-5-(trifluoromethyl)phenyl]amino]-1-(2-methyl-4-pyridinyl)-1H-pyrazole-5-propanol] | 2.88 | – | –
Cc1cc(-n2nc(Nc3cccc(OC(F)(F)F)c3)cc2CC#N)ccn1 [Compound 107, 1-(2-methyl-4-pyridinyl)-3-[[3-(trifluoromethoxy)phenyl]amino]-1H-pyrazole-5-acetonitrile] | 2.82 | 180.2 | –
Cc1cc(-n2nc(Nc3cccc(C(F)(F)F)c3)cc2CC#N)ccn1 [Compound 40, 1-(2-methyl-4-pyridinyl)-3-[[3-(trifluoromethyl)phenyl]amino]-1H-pyrazole-5-acetonitrile] | 4.37 | – | –
Cc1cc(-n2nc(Nc3ccc(F)c(F)c3)cc2CCCOCc2ccccc2)ccn1 [Compound 32, N-(3,4-difluorophenyl)-1-(2-methyl-4-pyridinyl)-5-[3-(phenylmethoxy)propyl]-1H-pyrazol-3-amine] | 1.02 | 108.2 | –
CNC(=O)Cc1cc(Nc2ccc3c(c2)OC(F)(F)O3)nn1-c1ccnc(C)c1 [Compound 97, 3-[(2,2-difluoro-1,3-benzodioxol-5-yl)amino]-N-methyl-1-(2-methyl-4-pyridinyl)-1H-pyrazole-5-acetamide] | 2.51 | 271.2 | –
Cc1cc(-n2nc(Nc3cccc(OC(F)(F)F)c3)cc2COCc2ccccc2)ccn1 [Compound 122, 1-(2-methyl-4-pyridinyl)-5-[(phenylmethoxy)methyl]-N-[3-(trifluoromethoxy)phenyl]-1H-pyrazol-3-amine] | 0.372 | 139.8 | –
CC[C@@H](O)Cc1cc(Nc2cccc(Cl)c2F)nn1-c1ccnc(C)c1 [Compound 59, (alphaR)-3-[(3-chloro-2-fluorophenyl)amino]-alpha-ethyl-1-(2-methyl-4-pyridinyl)-1H-pyrazole-5-ethanol] | 0.692 | 168.1 | –
Cc1cc(-n2nc(Nc3ccc(F)c(F)c3)cc2CO)ccn1 [Compound 15, 3-[(3,4-difluorophenyl)amino]-1-(2-methyl-4-pyridinyl)-1H-pyrazole-5-methanol] | 2.82 | 155.3 | –
Cc1cc(-n2nc(Nc3ccc(F)c(F)c3)cc2C)ccn1 [Compound 14, N-(3,4-difluorophenyl)-5-methyl-1-(2-methyl-4-pyridinyl)-1H-pyrazol-3-amine] | 3.39 | 169.2 | –
Cc1cc(-n2nc(Nc3ccc4c(c3)OC(F)(F)O4)cc2CCCOCc2ccccc2)ccn1 [Compound 104, N-(2,2-difluoro-1,3-benzodioxol-5-yl)-1-(2-methyl-4-pyridinyl)-5-[3-(phenylmethoxy)propyl]-1H-pyrazol-3-amine] | 0.562 | 124.4 | –
COC(=O)Cc1cc(Nc2cccc(OC(F)(F)F)c2)nn1-c1ccnc(C)c1 [Compound 109, 1-(2-methyl-4-pyridinyl)-3-[[3-(trifluoromethoxy)phenyl]amino]-1H-pyrazole-5-acetic acid methyl ester] | 2 | 115.8 | –
CC[C@@H](O)Cc1cc(Nc2cc(F)c(F)c(F)c2)nn1-c1ccnc(C)c1 [Compound 19, (alphaR)-alpha-ethyl-1-(2-methyl-4-pyridinyl)-3-[(3,4,5-trifluorophenyl)amino]-1H-pyrazole-5-ethanol] | 0.309 | 170.4 | 705
CC[C@@H](O)Cc1cc(Nc2ccc(F)c(F)c2F)nn1-c1ccnc(C)c1 [Compound 13, (alphaR)-alpha-ethyl-1-(2-methyl-4-pyridinyl)-3-[(2,3,4-trifluorophenyl)amino]-1H-pyrazole-5-ethanol] | 0.316 | 144.4 | –
CNC(=O)Cc1cc(Nc2ccc(F)c(F)c2)nn1-c1ccnc(C)c1 [Compound 27, 3-[(3,4-difluorophenyl)amino]-N-methyl-1-(2-methyl-4-pyridinyl)-1H-pyrazole-5-acetamide] | – | 252.9 | –
COc1cc(Nc2cc(CC#N)n(-c3ccnc(C)c3)n2)cc(C(F)(F)F)c1 [Compound 3, 3-[[3-methoxy-5-(trifluoromethyl)phenyl]amino]-1-(2-methyl-4-pyridinyl)-1H-pyrazole-5-acetonitrile] | 1.95 | 183.8 | 930
CC[C@@H](O)Cc1cc(Nc2cc(F)cc(Cl)c2)nn1-c1ccnc(C)c1 [Compound 60, (alphaR)-3-[(3-chloro-5-fluorophenyl)amino]-alpha-ethyl-1-(2-methyl-4-pyridinyl)-1H-pyrazole-5-ethanol] | 0.24 | 182.4 | –
COc1cc(Nc2cc(COCc3ccccc3)n(-c3ccnc(C)c3)n2)cc(C(F)(F)F)c1 [Compound 1, N-[3-methoxy-5-(trifluoromethyl)phenyl]-1-(2-methyl-4-pyridinyl)-5-[(phenylmethoxy)methyl]-1H-pyrazol-3-amine] | 1.45 | 148.1 | –
Cc1cc(-n2nc(Nc3cccc(Cl)c3F)cc2CC#N)ccn1 [Compound 63, 3-[(3-chloro-2-fluorophenyl)amino]-1-(2-methyl-4-pyridinyl)-1H-pyrazole-5-acetonitrile] | 3.89 | – | 434
CC[C@@H](O)Cc1cc(Nc2cc(Cl)cc(OC)c2)nn1-c1ccnc(C)c1 [Compound 62, (alphaR)-3-[(3-chloro-5-methoxyphenyl)amino]-alpha-ethyl-1-(2-methyl-4-pyridinyl)-1H-pyrazole-5-ethanol] | 0.427 | 121.9 | –

— patent publication US8791144B2, “Substituted N-phenyl-1-(4-Pyridinyl)-1H-pyrazol-3-amines” (Janssen Pharmaceutica NV, priority 2009, dated 2014)
